Article PMC10331583, “Control of fibrosis with enhanced safety via asymmetric inhibition of prolyl‐tRNA synthetase 1” (EMBO Molecular Medicine, 2023)
Values joined by “and” are separate entries in the source; they are usually repeats but may differ in a detail not shown here. Equal entries are not always repeated. Where two headings read alike, the source gives them in different places.

How the values were obtained:
[1] = system: WI‐26 VA4 cells; assay: CellTiter‐Glo assay (cytotoxicity)
[2] = CellTiter‐Glo assay (cytotoxicity); settings: human, WI-26 VA4 cells
[3] = system: WI‐26 VA4 cells; assay: Collagen ELISA (secreted pro‐collagen I)
[4] = system: TNT Quick Coupled Transcription/Translation System (luciferase synthesis); format: biochemical
[5] = log(inhibitor) vs. response, variable slope (four parameters), concentration in nM

SMILES: O=C(C[C@H]1NCCC[C@@H]1O)Cn1cnc2ccc(-c3cccc(F)c3)cc21 [DWN11251]
- activity at 10 µM ([1]; Homo sapiens, WI26VA4, read-out: CellTiter-Glo % of control, average, 10000 nM, average): 29%
- activity at 30 µM ([1]; Homo sapiens, WI26VA4, read-out: CellTiter-Glo % of control, average, 30000 nM, average): 14.4%
- activity at 100 µM ([1]; Homo sapiens, WI26VA4, read-out: CellTiter-Glo % of control, average, 100000 nM, average): 1.22%
- CellTiter-Glo LogIC50 (best-fit value) [1, 5]: 3.259
- CC50 at 72 h [2]: 1.82 µM
- Collagen, % of control (single replicates per experiment) ([3]; 10 nM, 0.01 µM): 112.57 % of control and 103.72 % of control and 109.80 % of control and 111.67 % of control and 110.64 % of control
- Collagen, % of control (single replicates per experiment) ([3]; 100 nM, 0.1 µM): 84.02 % of control and 93.58 % of control and 96.09 % of control and 96.94 % of control and 92.86 % of control
- Collagen, % of control (single replicates per experiment) ([3]; 300 nM, 0.3 µM): 47.78 % of control and 47.63 % of control and 53.20 % of control and 53.43 % of control and 55.58 % of control
- Collagen, % of control (single replicates per experiment) ([3]; 1000 nM, 1 µM): 11.57 % of control and 11.31 % of control and 12.08 % of control and 14.51 % of control and 14.77 % of control
- Collagen, % of control (single replicates per experiment) ([3]; 3000 nM, 3 µM): 3.47 % of control and 2.67 % of control and 3.07 % of control and 3.55 % of control and 4.03 % of control
- Collagen, % of control (single replicates per experiment) ([3]; 10000 nM, 10 µM): 2.75 % of control and 2.12 % of control and 2.44 % of control and 2.49 % of control and 2.64 % of control
- Collagen, % of control (single replicates per experiment) ([3]; 30000 nM, 30 µM): 3.52 % of control
- CC50/collagen IC50 ([3]; Fig 5E): 7.08
- IC50 ([3]; Homo sapiens, WI26VA4, read-out: Collagen IC50 (best-fit value), log(inhibitor) vs. response, variable slope (four parameters) (converted)): 0.257 µM
- activity at 0.01 µM ([3]; Homo sapiens, WI26VA4, read-out: Collagen, % of control (single replicates per experiment), 10 nM): 112%
- activity at 0.03 µM ([3]; Homo sapiens, WI26VA4, read-out: Collagen, % of control (single replicates per experiment), 30 nM): 109%
- activity at 0.1 µM ([3]; Homo sapiens, WI26VA4, read-out: Collagen, % of control (single replicates per experiment), 100 nM): 81.3%
- activity at 0.3 µM ([3]; Homo sapiens, WI26VA4, read-out: Collagen, % of control (single replicates per experiment), 300 nM): 42.9%
- activity at 1 µM ([3]; Homo sapiens, WI26VA4, read-out: Collagen, % of control (single replicates per experiment), 1000 nM): 10.2%
- activity at 3 µM ([3]; Homo sapiens, WI26VA4, read-out: Collagen, % of control (single replicates per experiment), 3000 nM): 2.81%
- activity at 10 µM ([3]; Homo sapiens, WI26VA4, read-out: Collagen, % of control (single replicates per experiment), 10000 nM): 2.31%
- activity at 30 µM ([3]; Homo sapiens, WI26VA4, read-out: Collagen, % of control (single replicates per experiment), 30000 nM): 2.54%
- activity at 0.01 µM ([3]; Homo sapiens, WI26VA4, read-out: Collagen, % of control, average, 10 nM, average): 110%
- activity at 0.03 µM ([3]; Homo sapiens, WI26VA4, read-out: Collagen, % of control, average, 30 nM, average): 108%
- activity at 0.1 µM ([3]; Homo sapiens, WI26VA4, read-out: Collagen, % of control, average, 100 nM, average): 90.8%
- activity at 0.3 µM ([3]; Homo sapiens, WI26VA4, read-out: Collagen, % of control, average, 300 nM, average): 50.1%
- activity at 1 µM ([3]; Homo sapiens, WI26VA4, read-out: Collagen, % of control, average, 1000 nM, average): 12.4%
- activity at 3 µM ([3]; Homo sapiens, WI26VA4, read-out: Collagen, % of control, average, 3000 nM, average): 3.27%
- activity at 10 µM ([3]; Homo sapiens, WI26VA4, read-out: Collagen, % of control, average, 10000 nM, average): 2.46%
- activity at 30 µM ([3]; Homo sapiens, WI26VA4, read-out: Collagen, % of control, average, 30000 nM, average): 2.88%
- Collagen HillSlope (best-fit value) ([3]; log(inhibitor) vs. response, variable slope (four parameters)): -1.623
- Collagen LogIC50 (best-fit value) [3, 5]: 2.409
- Relative (CC50)/(collagen IC50) ([3]; relative to HF, Fig 5E): 2.11
- TNT-luciferase % of control ([4]; 60 nM, Experiment #1, replicates, 0.06 µM): 107.20 % of control and 104.88 % of control and 105.66 % of control
- TNT-luciferase % of control ([4]; 60 nM, Experiment #2, replicates, 0.06 µM): 114.45 % of control and 123.12 % of control and 122.25 % of control
- TNT-luciferase % of control, average ([4]; 60 nM): 112.93 % of control
- TNT-luciferase % of control ([4]; 200 nM, Experiment #1, replicates, 0.2 µM): 108.74 % of control and 107.20 % of control and 111.83 % of control
- TNT-luciferase % of control ([4]; 200 nM, Experiment #2, replicates, 0.2 µM): 104.91 % of control and 109.25 % of control and 124.86 % of control
- TNT-luciferase % of control, average ([4]; 200 nM): 111.13 % of control
- TNT-luciferase % of control ([4]; 600 nM, Experiment #1, replicates, 0.6 µM): 114.14 % of control and 111.05 % of control and 117.22 % of control
- TNT-luciferase % of control ([4]; 600 nM, Experiment #2, replicates, 0.6 µM): 98.84 % of control (2×) and 100.58 % of control
- TNT-luciferase % of control, average ([4]; 600 nM): 106.78 % of control
- TNT-luciferase % of control ([4]; 2000 nM, Experiment #1, replicates, 2 µM): 91.77 % of control (2×) and 97.94 % of control
- TNT-luciferase % of control ([4]; 2000 nM, Experiment #2, replicates, 2 µM): 83.24 % of control and 92.77 % of control and 96.24 % of control
- TNT-luciferase % of control, average ([4]; 2000 nM): 92.29 % of control
- TNT-luciferase % of control ([4]; 6000 nM, Experiment #1, replicates, 6 µM): 60.77 % of control and 59.00 % of control and 60.23 % of control
- TNT-luciferase % of control ([4]; 6000 nM, Experiment #2, replicates, 6 µM): 57.75 % of control and 61.56 % of control and 58.87 % of control
- TNT-luciferase % of control, average ([4]; 6000 nM): 59.70 % of control
- TNT-luciferase % of control ([4]; 20000 nM, Experiment #1, replicates, 20 µM): 9.64 % of control and 9.49 % of control and 10.87 % of control
- TNT-luciferase % of control ([4]; 20000 nM, Experiment #2, replicates, 20 µM): 9.97 % of control and 10.14 % of control and 11.01 % of control
- TNT-luciferase % of control, average ([4]; 20000 nM): 10.19 % of control
- TNT-luciferase % of control ([4]; 60000 nM, Experiment #1, replicates, 60 µM): 0.32 % of control and 0.35 % of control and 0.31 % of control
- TNT-luciferase % of control ([4]; 60000 nM, Experiment #2, replicates, 60 µM): 0.26 % of control and 0.27 % of control and 0.30 % of control
- TNT-luciferase % of control, average ([4]; 60000 nM): 0.30 % of control
- TNT-luciferase % of control ([4]; 200000 nM, Experiment #1, replicates, 200 µM): 0.0123 % of control and 0.00453 % of control and 0.000979 % of control
- TNT-luciferase % of control ([4]; 200000 nM, Experiment #2, replicates, 200 µM): 0.0176 % of control and 0.0228 % of control and 0.0243 % of control
- TNT-luciferase % of control, average ([4]; 200000 nM): 0.0137 % of control
- TNT-luciferase LogIC50 (best-fit value) [4, 5]: 3.802
- IC50 ([4]; log(inhibitor) vs. response, variable slope (four parameters), unit from head concentration (nM), read-out: TNT-luciferase IC50 (best-fit value)): 6340 nM
